{
  "source": "patent EP0523013B1",
  "about": "“Use of benzimidazoline-2-oxo-1-carboxylic acid derivatives in the treatment of organic mental diseases” (BOEHRINGER INGELHEIM ITALIA S.p.A., priority 1991, dated 1993)",
  "tested_on": "scopolamine-induced impairment of passive avoidance response",
  "test": "passive avoidance test, scopolamine-induced impairment",
  "assay_type": "in vivo, Male Sprague Dawley rats",
  "method": "Male Sprague Dawley rats weighing 175-200 g were used. The animals were kept in a regulated environment (20 ± 1°C, 50-55% humidity and 12 hours light-dark cycle, light on at 7.00 a.m.) and maintained with standard pellet diet. The apparatus used for the passive avoidance test was composed of a dark compartment (30x30x30 cm) with a grid floor and a compartment (30x30x30 cm) illuminated from above by a 20 W daylight lamp, the 2 compartments being separated by a guillotine-type door (10x8 cm). Scrambled electric shocks were delivered to the grid floor by an isolated stimulator.\nRats were divided in groups of 10 animals. • a) Training: each rat was placed gently in the lighted compartment and 10 sec later the door was opened. As soon as the rat had moved into the dark compartment and the door had been shut, a 1.6 mA foot-shock was applied for 1 sec. The rat was immediately removed from the apparatus and returned to the home cage. • b) Retention: the retention test was carried out 24 hours later by an observer unaware of the given treatment. Each rat was placed into the lighted compartment again and the step-through latency was recorded. The test is stopped when the rat enters the dark compartment or when it fails to do so in […] 180 sec.",
  "key": {"[1]": {"conditions": "step-through latency in retention test 24 hours after training, test compound 0.03 mg/kg i.p. 15 min before scopolamine 0.75 mg/kg i.p., which was given 30 min before training, mean ± S.E.M, 10 animals, cut-off 180 sec"}},
  "note": "Where a name gives a salt, the structure may show the parent alone. Marks after values point to notes of the source that are not given here.",
  "data": [
    {"compound": "CN1[C@@H]2C[C@@H](OC(=O)[C@H](CO)c3ccccc3)C[C@H]1[C@@H]1O[C@@H]12", "note": "[Scopolamine, scopolamine, reference compound]", "values": [
      {"measurement": "LATENCY", "setting": "rat, in vivo, ip, 0.75 mg/kg", "result": "66 ± 18.7", "unit": "s"}
    ]},
    {"compound": "CN1[C@@H]2CC[C@H]1C[C@@H](NC(=O)n1c(=O)[nH]c3ccccc31)C2", "note": "[Compound 1, N-(endo-8-methyl-8-azabicyclo[3.2.1]oct-3-yl)-2,3-dihydro-2-oxo-1H-benzimidazole-1-carboxamide]", "values": [
      {"measurement": "LATENCY", "setting": "step-through latency in retention test 24 hours after training, test compound 0.01 mg/kg i.p. 15 min before scopolamine 0.75 mg/kg i.p., which was given 30 min before training, mean ± S.E.M, 10 animals, cut-off 180 sec", "result": "136 ± 16.0", "unit": "s"},
      {"measurement": "LATENCY", "setting": "[1]", "result": "109 ± 17.0", "unit": "s"}
    ]},
    {"compound": "CC(C)n1c(=O)n(C(=O)N[C@H]2C[C@H]3CC[C@@H](C2)N3C)c2ccccc21", "note": "[Compound 6, N-(endo-8-methyl-8-azabicyclo[3.2.1]oct.-3-yl)-2,3-dihydro-3-(1-methyl)ethyl-2-oxo-1H-benzimidazole-1-carboxamide, hydrochloric acid salt]", "values": [
      {"measurement": "LATENCY (SEC)", "setting": "[1]", "result": "140 + 16 ** SEC"}
    ]},
    {"compound": "CCn1c(=O)n(C(=O)N[C@H]2C[C@H]3CC[C@@H](C2)N3C)c2ccccc21", "note": "[Compound 5, N-(endo-8-methyl-8-azabicyclo[3.2.1]oct.-3-yl)-2,3-dihydro-3-ethyl-2-oxo-1H-benzimidazole-1-carboxamide]", "values": [
      {"measurement": "LATENCY", "setting": "[1]", "result": "113 ± 17.0", "unit": "s"}
    ]}
  ]
}
